Test results published in patent publication US8193213B2, “Spermicidal and/or antifungal composition and methods of using the same” (priority 2003, dated 2012).
Marks after values point to notes of the source that are not given here. Blank lines part the entries; values can stand above or below the molecule they belong to.

Columns and labels:
adult male Swiss mice = test: Antispermatogenic screen: single gavage dose to male mice, testes weight and Spermatogenic Index at 72 h; assay type: in vivo; conditions: racemic compounds, day 3 (72 h), vehicle 90% water, 7% Tween20, 3% ethanol
Protocol: The compounds of the invention were tested in mice for their effects on spermatogenesis three days after a single oral dose by the procedure described in Cook et al (1995) below. Compounds active in this test have been shown also to be anti-fertility compounds.
Compounds were screened for antispermatogenic activity by dosing male mice on day 1 with a gavage dose of control vehicle, positive control (compound 1) or compound of the invention. At 72 h after dosing, animals were killed and the testes were excised, trimmed of fat, and weighed. One testis was examined histologically and rated for spermatogenic potential using the Spermatogenic Index (J. M. Whitsett, P. F. Noden, J. Cherry and A. D. Lawton, J. Reprod. Fertil., 72, 277 (1984), which is a semiquantitative estimate of the sperm producing ability of the testes The index is based on histological appearance of the spermatogenic cells in the seminiferous tubules. A scale of 1 to 6 is used with 5 to 6 being the normal status. A second assessment was based on the weight of the testes.
Tables 1 and 2 show pertinent biological results in terms of the change in testes weight (TW) and spermatogenic index (SI) relative to a control containing only the administration vehicle, but no indenopyridine. In Tables 1 and 2, R^3 and R^4 refer to structures Ib, where R^3 is in the para position; R^1 is ethyl; R^2 is methyl; and R^5 is hydrogen.

Candida albicans = test: Antifungal susceptibility testing (NCCLS, MIC/MFC) against C. albicans; assay type: cell-based; parameters: Lowest [Active]: unit not given here; conditions: for CFU for MFC at 200: concentration 200; for CFU for MFC at 300: concentration 300; for Lowest [Active]: concentrations 300, 200, 100, unit not given, N/A = no active concentration
Protocol: (§1) Antifungal susceptibility testing was performed following the NCCLS guidelines with minor modifications. Briefly, a suspension of Candida albicans cells was prepared from pure cultures grown overnight on yeast-malt extract (YM) agar at 35° C. Several small colonies were removed from a YM agar plate and transferred to 5 ml of 0.85% saline. The cells were suspended by 15 seconds of vortexing and the cell density of the resulting suspension was determined using a spectrophotometer. The cell density was adjusted by addition of 0.85% saline until the transmittance matched that of a 0.5 McFarland standard when measured at a wavelength of 530 nm. An aliquot of this suspension was diluted 1:1000 in RPMI-MOPS to yield a working suspension. A similar suspension of Aspergillus fumigatus spores was obtained by using spores stored at […] in 0.85% saline. These spores were diluted in 0.85% saline to match the McFarland standard transmittance. This suspension was then further diluted 1:50 in RPMI-MOPS to produce the working inoculum suspension.
(§2) Dilution series of the test compounds were made in RPMI-MOPS containing 2% DMSO. An aliquot of each dilution was added in duplicate to the wells of a sterile 96-well, flat bottom microtiter plate. Then, an aliquot of either the C. albicans cell suspension or the A. fumigatus spore suspension were added to each well for a final volume of 200 μl. The plates were then incubated at […]. […] A similar determination was made for the A. fumigatus plates after 48 hours. […] The numbers of colony forming units (CFU) were counted and these values used to calculate the percent survival of cells or spores in inocula relative to the number of CFUs in the working inoculum suspension. The minimum fungicidal concentration (MFC) was the lowest concentration of test compound with a percent survival of less than 2%.

Aspergillus fumigatus = test: Antifungal susceptibility testing (NCCLS, MIC/MFC) against A. fumigatus; assay type: cell-based; parameters: Lowest [Active]: unit not given here; conditions: for CFU for MFC at 100 / CFU for MFC at 200 / CFU for MFC at 300 / Lowest [Active]: A. fumigatus (48 hours); for CFU for MFC at 100: concentration 100; for CFU for MFC at 200: concentration 200; for CFU for MFC at 300: concentration 300; for Lowest [Active]: concentrations 300, 200, 100, unit not given, N/A = no active concentration
Protocol: as §1, §2

Compound: CCN1CC[C@@H]2[C@@H](c3ccc(C(=O)O)cc3)c3cc(C)c(I)cc3[C@@H]2C1.Cl (racemic) [Compound 17, (4aRS,5SR,9bRS)-2-Ethyl-2,3,4,4a,5,9b-hexahydro-8-iodo-7-methyl-5-(4-carboxyphenyl)-1H-indeno[1,2-c]pyridine Hydrochloride]
SI change (%) (Spermatogenic Index, % change from vehicle control) (adult male Swiss mice; 1 mg/kg single gavage dose): −67%*
TW change (%) (testes weight, % change from vehicle control) (adult male Swiss mice; 1 mg/kg single gavage dose): −18%
SI change (%) (Spermatogenic Index, % change from vehicle control) (adult male Swiss mice; 3 mg/kg single gavage dose): −66%*
TW change (%) (testes weight, % change from vehicle control) (adult male Swiss mice; 3 mg/kg single gavage dose): −9%
SI change (%) (Spermatogenic Index, % change from vehicle control) (adult male Swiss mice; 10 mg/kg single gavage dose): −76%*
TW change (%) (testes weight, % change from vehicle control) (adult male Swiss mice; 10 mg/kg single gavage dose): −32%*

Compound: CCN1CC[C@@H]2[C@@H](c3ccc(C(=O)O)cc3)c3cc(C)c(Cl)cc3[C@@H]2C1.Cl (racemic) [Compound 20, (4aRS,5SR,9bRS)-2-Ethyl-8-Chloro-7-Methyl-2,3,4,4a,5,9b-Hexahydro-5-(4-carboxylphenyl)-1H-Indeno[1,2-c]pyridine Hydrochloride]
SI change (%) (Spermatogenic Index, % change from vehicle control) (adult male Swiss mice; 1 mg/kg single gavage dose): −55%*
TW change (%) (testes weight, % change from vehicle control) (adult male Swiss mice; 1 mg/kg single gavage dose): −16%
SI change (%) (Spermatogenic Index, % change from vehicle control) (adult male Swiss mice; 3 mg/kg single gavage dose): −66%*
TW change (%) (testes weight, % change from vehicle control) (adult male Swiss mice; 3 mg/kg single gavage dose): −23%
SI change (%) (Spermatogenic Index, % change from vehicle control) (adult male Swiss mice; 10 mg/kg single gavage dose): −72%*
TW change (%) (testes weight, % change from vehicle control) (adult male Swiss mice; 10 mg/kg single gavage dose): −22%

Compound: CCN1CCC2C(C1)c1ccc(C)cc1C2c1ccc(OC)cc1.Cl (racemic) [Compound 4587-029]
CFU for MFC at 200 (Candida albicans; C. albicans (19 hours)): Static (Static = well looked clear, but <98% killed)
CFU for MFC at 300 (Candida albicans; C. albicans (19 hours)): Cidal (Cidal = >98% killed)
Lowest [Active] (Candida albicans; C. albicans (19 hours)): 200
CFU for MFC at 100 (Aspergillus fumigatus): Cidal (Cidal = >98% killed)
CFU for MFC at 200 (Aspergillus fumigatus): Cidal (Cidal = >98% killed)
CFU for MFC at 300 (Aspergillus fumigatus): Cidal (Cidal = >98% killed)
Lowest [Active] (Aspergillus fumigatus): 100

Compound: CCN1CCC2C(C1)c1ccccc1C2c1ccccc1.Cl (racemic) [Compound 4587-037]
CFU for MFC at 300 (Candida albicans; C. albicans (19 hours)): Cidal (Cidal = >98% killed)
Lowest [Active] (Candida albicans; C. albicans (19 hours)): 300
CFU for MFC at 200 (Aspergillus fumigatus): Cidal (Cidal = >98% killed)
CFU for MFC at 300 (Aspergillus fumigatus): Static* (Static = well looked clear, but <98% killed)
Lowest [Active] (Aspergillus fumigatus): 200

Compound: CCN1CCC2=C(c3ccc(C)cc3)c3cc(C)ccc3C2C1.Cl (racemic) [Compound 4587-040]
CFU for MFC at 100 (Candida albicans; C. albicans (19 hours), concentration 100): Cidal (Cidal = >98% killed)
CFU for MFC at 200 (Candida albicans; C. albicans (19 hours)): Cidal (Cidal = >98% killed)
CFU for MFC at 300 (Candida albicans; C. albicans (19 hours)): Cidal (Cidal = >98% killed)
Lowest [Active] (Candida albicans; C. albicans (19 hours)): 100
CFU for MFC at 100 (Aspergillus fumigatus): Cidal (Cidal = >98% killed)
CFU for MFC at 200 (Aspergillus fumigatus): Cidal (Cidal = >98% killed)
CFU for MFC at 300 (Aspergillus fumigatus): Cidal (Cidal = >98% killed)
Lowest [Active] (Aspergillus fumigatus): 100

Compound: CCN1CCC2C(C1)c1ccc(C)cc1C2c1ccc(CO)cc1.Cl (racemic) [Compound 4587-055]
CFU for MFC at 300 (Candida albicans; C. albicans (19 hours)): Static (Static = well looked clear, but <98% killed)
Lowest [Active] (Candida albicans; C. albicans (19 hours)): 300

Compound: CCN1CCC2C(C1)c1ccc(C)cc1C2c1ccc(C#N)cc1.Cl (racemic) [Compound 4587-060]
CFU for MFC at 200 (Aspergillus fumigatus): Cidal (Cidal = >98% killed)
Lowest [Active] (Aspergillus fumigatus): 200

Lowest MIC (Candida albicans; C. albicans, lowest concentration that appears to have no growth): 20 µg/mL
Lowest MIC (Aspergillus fumigatus; A. fumigatus, lowest concentration that appears to have no growth): 10 µg/mL
Compound: CCCOC(=O)c1ccc(C2c3cc(C)ccc3C3CN(CC)CCC32)cc1.Cl (racemic) [Compound 4587-062]
Lowest MFC (Candida albicans; C. albicans, lowest concentration that kills >= 98% of the cells in the well): 20 µg/mL
Lowest MFC (Aspergillus fumigatus; A. fumigatus, lowest concentration that kills >= 98% of the cells in the well): 10 µg/mL
